Experimental data published in ChEMBL document CHEMBL5523677, “Discovery of ASP6918, a KRAS G12C inhibitor: Synthesis and structure-activity relationships of 1-{2,7-diazaspiro[3.5]non-2-yl}prop-2-en-1-one derivatives as covalent inhibitors with good potency and oral activity for the treatment of solid tumors” (Bioorg Med Chem, 2024).

Columns and labels:
[1] = Inhibition of biotinylated GDP-bound Avi-tagged KRAS G12C mutant (1 to 185 residues)/SOS/GST-tagged c-Raf (unknown origin) complex formation incubated for 1 hr in presence of GTP by fluorescence based analysis; set-up: species or system Homo sapiens
[2] = Inhibition of ERK phosphorylation in KRAS-G12C mutant positive human NCI-H1373 cells incubated for 2 hrs by ELISA; type: cell-based
[3] = Lipophilicity, LogD of compound in 1-Octanol/PBS at pH 7.4 by LC-MS analysis; type: physicochemical
[4] = Aqueous solubility of compound in Japanese Pharmacopoeia 2nd fluid at pH 6.8 at 130 umol/L incubated for 20 hrs by liquid chromatography; type: physicochemical; conditions: dose 130 µmol/L
[5] = Metabolic stability in mouse liver microsomes assessed as intrinsic clearance at 0.1 to 0.2 micromol/L incubated for 30 mins in presence of NADPH-generating system by LC-MS/MS analysis; type: ADME, Microsome; conditions: dose 0.1-0.2 µmol/L, read-out: CLH
[6] = Inhibition of ERK phosphorylation in human A-375 cells harboring wild type KRAS and mutant BRAF incubated for 2 hrs by ELISA; type: cell-based; conditions: A-375, 2 h
NCI-H1373 [7] = test: Cytotoxicity against KRAS G12C mutant positive human NCI-H1373 cells assessed as inhibition of cell growth incubated for 6 days by Celltiter-Glo 2.0 assay; type: functional, cell-based
NCI-H1373 [8] = test: Antitumor activity against KRAS G12C-positive human NCI-H1373 cells xenografted in male nude mouse assessed as tumor regression at 40 mg/kg, po administered once daily for 13 days and measured on day 14 relative to control; type: functional; conditions: time 14 day
NCI-H1373 [9] = test: Antitumor activity against KRAS G12C-positive human NCI-H1373 cells xenografted in male nude mouse assessed as tumor regression at 60 mg/kg, po administered once daily for 13 days and measured on day 14 relative to control; type: functional; conditions: time 14 day
[10] = Drug concentration in tumor of male nude mouse xenografted with KRAS G12C mutant positive human NCI-H1373 cells at 40 mg/kg, po administered as single dose and measured after 6 hrs; type: ADME, organism-based, Neoplasm; conditions: read-out: Ct
[11] = In vivo inhibition of ERK phosphorylation in male nude mouse xenografted with KRAS G12C mutant positive human NCI-H1373 cells assessed as reduction in pERK level in tumor at 40 mg/kg, po administered as single dose and measured after 6 hrs relative to control; type: functional
NCI-H1373 [12] = test: Antitumor activity against KRAS G12C mutant positive human NCI-H1373 cells xenografted in male nude mouse assessed as inhibition of tumor growth at 10 mg/kg, sc administered once daily for 13 days and measured on day 14 relative to control; type: functional; conditions: NCI-H1373, 336 h, time 14 day, read-out: TGI
NCI-H1373 [13] = test: Antitumor activity against KRAS G12C-positive human NCI-H1373 cells xenografted in male nude mouse assessed as inhibition of tumor growth at 40 mg/kg, po administered once daily for 13 days and measured on day 14 relative to control; type: functional; conditions: NCI-H1373, 336 h, time 14 day, read-out: TGI
NCI-H1373 [14] = test: Antitumor activity against KRAS G12C mutant positive human NCI-H1373 cells xenografted in male nude mouse assessed as inhibition of tumor growth at 3 mg/kg, sc administered once daily for 13 days and measured on day 14 relative to control; type: functional; conditions: NCI-H1373, 336 h, time 14 day, read-out: TGI
[15] = In vivo inhibition of ERK phosphorylation in male nude mouse xenografted with KRAS G12C mutant positive human NCI-H1373 cells assessed as reduction in pERK level in tumor at 3 mg/kg, sc administered as single dose and measured after 6 hrs relative to control; type: functional
[16] = Drug concentration in tumor of male nude mouse xenografted with KRAS G12C mutant positive human NCI-H1373 cells at 3 mg/kg, sc administered as single dose and measured after 6 hrs; type: ADME, organism-based, Neoplasm; conditions: read-out: Ct
[17] = Drug concentration in plasma of male nude mouse xenografted with KRAS G12C mutant positive human NCI-H1373 cells at 60 mg/kg, po administered as single dose and measured after 6 hrs; type: ADME, organism-based
NCI-H1373 [18] = test: Antitumor activity against KRAS G12C-positive human NCI-H1373 cells xenografted in male nude mouse assessed as inhibition of tumor growth at 60 mg/kg, po administered once daily for 13 days and measured on day 14 relative to control; type: functional; conditions: NCI-H1373, 336 h, time 14 day, read-out: TGI
[19] = Drug concentration in plasma of male nude mouse xenografted with KRAS G12C mutant positive human NCI-H1373 cells at 40 mg/kg, po administered as single dose and measured after 6 hrs; type: ADME, organism-based
[20] = Metabolic stability in human liver microsomes assessed as intrinsic clearance at 0.1 to 0.2 micromol/L incubated for 30 mins in presence of NADPH-generating system by LC-MS/MS analysis; type: ADME, Microsome; conditions: dose 0.1-0.2 µmol/L, read-out: CLH
[21] = In vivo inhibition of ERK phosphorylation in male nude mouse xenografted with KRAS G12C mutant positive human NCI-H1373 cells assessed as reduction in pERK level in tumor at 20 mg/kg, po administered as single dose and measured after 6 hrs relative to control; type: functional
[22] = In vivo inhibition of ERK phosphorylation in male nude mouse xenografted with KRAS G12C mutant positive human NCI-H1373 cells assessed as reduction in pERK level in tumor at 60 mg/kg, po administered as single dose and measured after 6 hrs relative to control; type: functional
NCI-H1373 [23] = test: Antitumor activity against KRAS G12C-positive human NCI-H1373 cells xenografted in male nude mouse assessed as inhibition of tumor growth at 10 mg/kg, po administered once daily for 13 days and measured on day 14 relative to control; type: functional; conditions: NCI-H1373, 336 h, time 14 day, read-out: TGI
NCI-H1373 [24] = test: Antitumor activity against KRAS G12C mutant positive human NCI-H1373 cells xenografted in male nude mouse assessed as tumor regression at 10 mg/kg, sc administered once daily for 13 days and measured on day 14 relative to control; type: functional; conditions: time 14 day
[25] = Drug concentration in plasma of male nude mouse xenografted with KRAS G12C mutant positive human NCI-H1373 cells at 3 mg/kg, sc administered as single dose and measured after 6 hrs; type: ADME, organism-based
[26] = Drug concentration in tumor of male nude mouse xenografted with KRAS G12C mutant positive human NCI-H1373 cells at 20 mg/kg, po administered as single dose and measured after 6 hrs; type: ADME, organism-based, Neoplasm; conditions: read-out: Ct
[27] = Toxicity in male nude mouse xenografted with KRAS G12C-positive human NCI-H1373 cells assessed as reduction in body weight at 10 to 60 mg/kg, po administered once daily for 13 days; type: organism-based; conditions: in vivo, 312 h, dose 10-60 mg/kg, time 13 day
[28] = Drug concentration in plasma of male nude mouse xenografted with KRAS G12C mutant positive human NCI-H1373 cells at 20 mg/kg, po administered as single dose and measured after 6 hrs; type: ADME, organism-based
[29] = Drug concentration in tumor of male nude mouse xenografted with KRAS G12C mutant positive human NCI-H1373 cells at 60 mg/kg, po administered as single dose and measured after 6 hrs; type: ADME, organism-based, Neoplasm; conditions: read-out: Ct
NCI-H1373 [30] = test: Antitumor activity against KRAS G12C-positive human NCI-H1373 cells xenografted in male nude mouse assessed as inhibition of tumor growth at 20 mg/kg, po administered once daily for 13 days and measured on day 14 relative to control; type: functional; conditions: NCI-H1373, 336 h, time 14 day, read-out: TGI

## C=CC(=O)N1CC2(CCN(c3nc(OC4CCN(CC)CC4)nc4c(OC5CC5)c(-c5c(C)ccc6[nH]ncc56)c(Cl)cc34)CC2)C1
[1]
  IC50: 56 nM
[2]; Homo sapiens, NCI-H1373, 2 h
  IC50: 35 nM

## C=CC(=O)N1CC2(CCN(c3nc(OC4CCN(CC)CC4)nc4c(F)c(-c5c(C)ccc6[nH]ncc56)c(CC)cc34)CC2)C1
[1]
  IC50: 59 nM
[2]; Homo sapiens, NCI-H1373, 2 h
  IC50: 160 nM

## C=CC(=O)N1CC2(CCN(c3nc(OC4CCN(CC)CC4)nc4c(C#N)c(-c5c(C)ccc6[nH]ncc56)c(Cl)cc34)CC2)C1
[1]
  IC50: 280 nM

## C=CC(=O)N1CC2(CCN(c3nc(OC4CCN(CC)CC4)nc4c(F)c(-c5c(C)ccc6[nH]ncc56)c(-c5ccccc5)cc34)CC2)C1
[1]
  IC50: > 1000 nM

## C=CC(=O)N1CC2(CCN(c3nc(OC4CCN(C)CC4)nc4c(Cl)c(-c5c(C)ccc6[nH]ncc56)c(F)cc34)CC2)C1
[3]
  logD: 3.3
[4]
  solubility at 20 h, 130 µM: > 100 µM
[5]
  CLint scaled: 115 mL/min/kg
[6]
  IC50: > 10000 nM
NCI-H1373 [7]; Homo sapiens, NCI-H1373, 144 h
  IC50: 100 nM
[2]; Homo sapiens, NCI-H1373, 2 h
  IC50: 96 nM

## C=CC(=O)N1CC2(CCN(c3nc(OC4CCN(CC)CC4)nc4c(OC5CCC5)c(-c5c(C)ccc6[nH]ncc56)c(Cl)cc34)CC2)C1
[1]
  IC50: 57 nM
[2]; Homo sapiens, NCI-H1373, 2 h
  IC50: 35 nM

## C=CC(=O)N1CC2(CCN(c3nc(OC4CCN(CC)CC4)nc4c(F)c(-c5c(C)ccc6[nH]ncc56)c(C5CC5)cc34)CC2)C1
[1]
  IC50: 51 nM
[2]; Homo sapiens, NCI-H1373, 2 h
  IC50: 31 nM

## C#Cc1cc2c(N3CCC4(CC3)CN(C(=O)C=C)C4)nc(OC3CCN(CC)CC3)nc2c(F)c1-c1c(C)ccc2[nH]ncc12
[1]
  IC50: 56 nM
[2]; Homo sapiens, NCI-H1373, 2 h
  IC50: 120 nM

## C=CC(=O)N1CC2(CCN(c3nc(OC4CCN(CC)CC4)nc4cc(-c5c(C)ccc6[nH]ncc56)c(Cl)cc34)CC2)C1
[1]
  IC50: 250 nM

## C=CC(=O)N1CC2(CCN(c3nc(OC4CCN(CC)CC4)nc4c(F)c(-c5c(C)ccc6[nH]ncc56)c(C(=C)C)cc34)CC2)C1
[1]
  IC50: 100 nM
[2]; Homo sapiens, NCI-H1373, 2 h
  IC50: 140 nM

## C=CC(=O)N1CC2(CCN(c3nc(OC4CCN(CC)CC4)nc4c(OCC)c(-c5c(C)ccc6[nH]ncc56)c(Cl)cc34)CC2)C1
[1]
  IC50: 50 nM
[2]; Homo sapiens, NCI-H1373, 2 h
  IC50: 49 nM

## C=CC(=O)N1CC2(CCN(c3nc(OC4CCN(C)CC4)nc4c(OC5CCC5)c(-c5c(C)ccc6[nH]ncc56)c(C=C)cc34)CC2)C1
[3]
  logD: > 4.3
[4]
  solubility at 20 h, 130 µM: > 100 µM
[5]
  CLint scaled: 342 mL/min/kg
[6]
  IC50: > 10000 nM
NCI-H1373 [7]; Homo sapiens, NCI-H1373, 144 h
  IC50: 12 nM
[2]; Homo sapiens, NCI-H1373, 2 h
  IC50: 5 nM

## C=CC(=O)N1CC2(CCN(c3nc(OC4CCN(C)CC4)nc4c(OCC)c(-c5c(C)ccc6[nH]ncc56)c(C=C)cc34)CC2)C1
[3]
  logD: 3.7
NCI-H1373 [8]
  Activity: 49%
NCI-H1373 [9]
  Activity: 73%
[10]
  concentration at 6 h: 50 nM
[11]
  inhibition in vivo at 40 mg/kg: 72%
NCI-H1373 [12]
  inhibition in vivo at 10 mg/kg: > 100%
NCI-H1373 [13]
  inhibition in vivo at 40 mg/kg: > 100%
NCI-H1373 [14]
  inhibition in vivo at 3 mg/kg: 82%
[15]
  inhibition in vivo at 3 mg/kg: 72%
[4]
  solubility at 20 h, 130 µM: > 100 µM
[5]
  CLint scaled: 119 mL/min/kg
[6]
  IC50: > 10000 nM
[16]
  concentration at 6 h: 170 nM
[17]
  concentration at 6 h: 110 nM
NCI-H1373 [18]
  inhibition in vivo at 60 mg/kg: > 100%
[19]
  concentration at 6 h: 120 nM
[20]
  CLint scaled: 130 mL/min/kg
[21]
  inhibition in vivo at 20 mg/kg: 38%
[22]
  inhibition in vivo at 60 mg/kg: 80%
NCI-H1373 [23]
  inhibition in vivo at 10 mg/kg: 27%
NCI-H1373 [24]
  Activity: 73%
[25]
  concentration at 6 h: 280 nM
NCI-H1373 [7]; Homo sapiens, NCI-H1373, 144 h
  IC50: 8 nM
NCI-H1373 [7]; nci-h1373
  IC50: 6 nM
[26]
  concentration at 6 h: 7 nM
[2]; Homo sapiens, NCI-H1373, 2 h
  IC50: 5 nM
[2]; nci-h1373
  IC50: 4 nM
[27]
  Activity: Non-Toxic
[28]
  concentration at 6 h: 21 nM
[29]
  concentration at 6 h: 81 nM
NCI-H1373 [30]
  inhibition in vivo at 20 mg/kg: 68%

## C=CC(=O)N1CC2(CCN(c3nc(OC4CCN(CC)CC4)nc4c(F)c(-c5c(C)ccc6[nH]ncc56)c(C=C)cc34)CC2)C1
[1]
  IC50: 41 nM
[2]; Homo sapiens, NCI-H1373, 2 h
  IC50: 37 nM

## C=CC(=O)N1CC2(CCN(c3nc(OC4CCN(C)CC4)nc4c(OC)c(-c5c(C)ccc6[nH]ncc56)c(C=C)cc34)CC2)C1
[3]
  logD: 3.2
[6]
  IC50: > 10000 nM
NCI-H1373 [7]; Homo sapiens, NCI-H1373, 144 h
  IC50: 52 nM
[2]; Homo sapiens, NCI-H1373, 2 h
  IC50: 39 nM

## C=CC(=O)N1CC2(CCN(c3nc(OC4CCN(CC)CC4)nc4c(OC)c(-c5c(C)ccc6[nH]ncc56)c(Cl)cc34)CC2)C1
[1]
  IC50: 46 nM
[2]; Homo sapiens, NCI-H1373, 2 h
  IC50: 75 nM
